Test results from ChEMBL document CHEMBL5620368, “Molecular-level strategic goals and repressors in Leishmaniasis - Integrated data to accelerate target-based heterocyclic scaffolds” (Eur J Med Chem, 2023).
Converted amounts (≈) assume the structure as drawn. Values belong to the compound of their own block, whether it stands above or below them.

Experiments:
[1] = Inhibition of Leishmania infantum Trypanothione reductase expressed in Escherichia coli BL21 (DE3) using trypanothione as substrate preincubated for 3 mins followed NADPH addition by Dixon plot analysis
DNA topoisomerase I = molecular target: T1, DNA topoisomerase I (Leishmania donovani (strain BPK282A1), UniProt E9BRC0); experiment: Inhibition of Leishmania donovani DNA topoisomerase I
T1 sequence (E9BRC0 whole entry): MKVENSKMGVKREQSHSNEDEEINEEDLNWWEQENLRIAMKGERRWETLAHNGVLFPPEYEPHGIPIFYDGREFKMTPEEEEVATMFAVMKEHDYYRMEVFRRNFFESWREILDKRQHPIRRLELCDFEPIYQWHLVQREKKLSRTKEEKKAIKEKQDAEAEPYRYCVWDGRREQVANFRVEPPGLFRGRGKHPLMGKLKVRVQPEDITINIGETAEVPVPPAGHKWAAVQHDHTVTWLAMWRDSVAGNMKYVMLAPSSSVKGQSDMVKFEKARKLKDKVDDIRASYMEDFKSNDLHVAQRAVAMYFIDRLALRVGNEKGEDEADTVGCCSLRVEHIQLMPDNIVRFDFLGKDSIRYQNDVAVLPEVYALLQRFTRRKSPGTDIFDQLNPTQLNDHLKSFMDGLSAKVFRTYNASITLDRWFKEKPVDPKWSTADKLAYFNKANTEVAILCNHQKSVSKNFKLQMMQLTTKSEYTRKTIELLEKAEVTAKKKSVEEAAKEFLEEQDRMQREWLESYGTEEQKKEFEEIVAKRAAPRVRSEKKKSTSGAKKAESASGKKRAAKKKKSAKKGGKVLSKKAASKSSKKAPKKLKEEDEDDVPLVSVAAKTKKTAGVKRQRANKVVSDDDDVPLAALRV

Leishmania infantum [2] = experiment: Inhibition of Leishmania infantum Arginase expressed in Escherichia coli BL21 (DE3) at 100 uM by enzymatic assay relative to control
Leishmania infantum [3] = experiment: Inhibition of Leishmania infantum promastigotes Arginase expressed in Escherichia coli BL21 (DE3) at 100 uM by enzymatic assay relative to control
[4] = Inhibition of recombinant rat liver arginase
Leishmania amazonensis [5] = experiment: Antileishmanial activity against Leishmania amazonensis intracellular amastigotes assessed as parasite growth inhibition; format: functional, organism-based
Leishmania donovani [6] = experiment: Antileishmanial activity against Leishmania donovani intracellular amastigotes assessed as parasite growth inhibition; format: functional, organism-based
Leishmania donovani [7] = experiment: Antileishmanial activity against Leishmania donovani promastigotes assessed as parasite growth inhibition incubated for 72 hrs by Alamar blue staining based analysis; format: functional, organism-based
Leishmania donovani [8] = experiment: Antileishmanial activity against Leishmania donovani Ag83 amastigotes infected in BALB/c mouse macrophage assessed as cell viability incubated for 48 hrs by PI staining based analysis; format: functional, organism-based; conditions: Ag83, 48 h
Leishmania infantum [9] = experiment: Antileishmanial activity against Leishmania infantum MCAN/ES/ 89/IPZ229/1/89 axenic amastigotes assessed as reduction in parasite viability treated for 24 hrs by PI staining based flow cytometry; format: functional, organism-based; conditions: MCAN/ES/ 89/IPZ229/1/89, 24 h
Leishmania infantum [10] = experiment: Antileishmanial activity against Leishmania infantum MCAN/ES/ 89/IPZ229/1/89 promastigote assessed as reduction in parasite viability incubated for 24 hrs by PI staining based flow cytometry; format: functional, organism-based; conditions: MCAN/ES/ 89/IPZ229/1/89, 24 h
[11] = Inhibition of Leishmania infantum Trypanothione reductase
Leishmania amazonensis [12] = experiment: Antiprotozoal activity against Leishmania amazonensis axenic amastigotes assessed as growth inhibition measured after 5 days by MTT assay; format: functional, organism-based; conditions: 120 h
Leishmania mexicana = experiment: Antileishmanial activity against Leishmania mexicana promastigotes MHOM/B2/62/BEL21 assessed as reduction in parasite growth by tryphan blue staining based analysis; format: functional, organism-based
[13] = Inhibition of Leishmania braziliensis DNA topoisomerase I
Leishmania infantum [14] = experiment: Antileishmanial activity against GFP-expressing Leishmania infantum intracellular amastigotes infected in human THP-1 derived macrophage cells assessed as reduction in parasite viability measured for 72 hrs by resazurin/alamar blue fluorometric assay; format: functional, organism-based; conditions: THP-1, 72 h
Arginase = Arginase (Leishmania amazonensis, UniProt O96394); experiment: Inhibition of Leishmania amazonensis Arginase
Leishmania amazonensis [15] = experiment: Antileishmanial activity against Leishmania amazonensis promastigotes assessed as parasite growth inhibition incubated for 24 hrs; format: functional, organism-based
Leishmania amazonensis [16] = experiment: Antileishmanial activity against Leishmania amazonensis axenic amastigote assessed as inhibition of parasite growth incubated for 72 hrs by MTT colorimetric assay; format: functional, organism-based
Leishmania amazonensis [17] = experiment: Antileishmanial activity against Leishmania amazonensis axenic promastigotes assessed as inhibition of parasite growth incubated for 72 hrs by MTT colorimetric assay; format: functional, organism-based
Leishmania major = experiment: Antileishmanial activity against Leishmania major amastigotes assessed as reduction in parasite growth incubated for 72 hrs by MTS assay; format: functional, organism-based
Leishmania donovani [18] = experiment: Antileishmanial activity against Leishmania donovani amastigotes assessed as parasite growth inhibition incubated for 72 hrs by MTS assay; format: functional, organism-based
Leishmania infantum [19] = experiment: Antileishmanial activity against Leishmania infantum amastigotes assessed as inhibition of parasite growth; format: functional, organism-based
Leishmania donovani [20] = experiment: Antileishmanial activity against Leishmania donovani MHOM/IN/83/AG83 promastigotes infected in BALB/c mouse assessed as reduction of parasite burden in spleen at 20 mg/kg per day relative to control; format: functional; parameters: scale not given: the % may be the effect or the level left
Trypanothione reductase = Trypanothione reductase (Leishmania donovani, UniProt P39050); experiment: Inhibition of Leishmania donovani Trypanothione reductase
Chain of Trypanothione reductase (P39050 whole entry): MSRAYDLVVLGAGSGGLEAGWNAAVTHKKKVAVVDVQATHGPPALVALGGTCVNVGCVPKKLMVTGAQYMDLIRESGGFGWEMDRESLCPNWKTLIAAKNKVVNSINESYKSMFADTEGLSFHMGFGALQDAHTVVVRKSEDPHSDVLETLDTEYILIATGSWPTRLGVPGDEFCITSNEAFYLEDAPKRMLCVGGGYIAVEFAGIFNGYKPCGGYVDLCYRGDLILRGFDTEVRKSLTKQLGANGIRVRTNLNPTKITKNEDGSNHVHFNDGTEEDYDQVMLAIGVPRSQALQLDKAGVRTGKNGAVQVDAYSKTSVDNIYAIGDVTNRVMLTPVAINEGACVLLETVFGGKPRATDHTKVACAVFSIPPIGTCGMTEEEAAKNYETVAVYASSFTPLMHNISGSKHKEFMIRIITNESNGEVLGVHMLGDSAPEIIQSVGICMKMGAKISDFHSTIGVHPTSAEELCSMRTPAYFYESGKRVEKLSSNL

Compound: Cc1cc(NC(=O)c2ccc([N+](=O)[O-])s2)ccc1Br
IC50 [1]: 0.19 µM

IC50 (DNA topoisomerase I): 5.3 µM
Compound: CCCCCCCCCCCCCCCC#CC(=O)O

inhibition (Leishmania infantum [2]): 72.3%
inhibition (Leishmania infantum [3]): 74.1%
Compound: O=C(/C=C/c1ccc(F)cc1)c1ccccc1Cl

inhibition (Leishmania infantum [2]): 69.5%
inhibition (Leishmania infantum [3]): 70.4%
Compound: COc1ccc(C(=O)/C=C/c2ccc([N+](=O)[O-])cc2)cc1

IC50 [4]: 1.8 µM
Compound: Oc1cc(O)c2c(c1)O[C@H](c1ccc(O)c(O)c1)[C@@H](O)C2 [CIANIDANOL]

Compound: O=C(O)c1cc(O)c(O)c(O)c1 [GALLIC ACID]
IC50 [4]: 3.8 µM

Compound: COc1cc(C)cc2c1C(=O)C1OC1(c1c(C)cc3c(c1OC)C(=O)C1OC1C3=O)C2=O (stereo not given)
IC50 (Leishmania amazonensis [5]): 0.18 µM
IC50 (Leishmania donovani [6]): 20.7 µM
IC50 (Leishmania donovani [7]): 20.7 µM

Compound: C/C=C1/CN(C)[C@H]2Cc3c([nH]c4ccccc34)[C@H](c3cc4[nH]c5c(c4cc3OC)CCN3C[C@@H]4C[C@H](CC)[C@H]3[C@@]5(C(=O)OC)C4)C[C@@H]1C2C(=O)OC (stereo not given in full)
EC50 (Leishmania donovani [8]): 1.68 µM

IC50 [11]: 8.6 µM
Compound: NCCNCc1nccn1-c1ccc(-c2nc(CCc3ccccc3-c3ccccc3)cs2)c(OCCN2CCNC2=O)c1
EC50 (Leishmania infantum [9]): 5.3 µM
EC50 (Leishmania infantum [10]): 5.3 µM

Compound: COc1ccc2c(c[n+](C)c3c4cc5c(cc4ccc23)OCO5)c1OC [CHELERYTHRINE]
IC50 (Leishmania amazonensis [12]): 0.03 µM

Compound: Cc1ccc2c(c1)C1c3ccccc3CC1C(c1ccccn1)N2 (stereo not given)
IC50 (Leishmania mexicana): 1 µg/mL (≈ 3.2 µM)

Compound: Cc1cc2c(c(=O)[nH]1)C(=O)O/C2=C/c1ccccc1
EC50 (Leishmania donovani [8]): 1 µM

IC50 [13]: 71 µM
Compound: O=C1C(O)=C(CC2=C(O)C(=O)c3ccccc3C2=O)C(=O)c2ccccc21

Compound: O=C(Cc1cccc2ccccc12)Nc1ccc([Se][Se]c2ccc(NC(=O)c3cccc4ccccc34)cc2)cc1
EC50 (Leishmania infantum [14]): 0.5 µM

IC50 (Arginase): 1.4 µM
Compound: O=c1c(O)c(-c2ccc(O)c(O)c2)oc2cc(O)ccc12 [FISETIN]

Compound: CCN(CC)CCOC(=O)c1ccc(NCCC(=O)c2ccc([N+](=O)[O-])cc2)cc1
IC50 (Leishmania amazonensis [15]): 12.4 µM

Compound: COc1ccc([C@@H]2Cc3cc(OC)c(O)cc3[C@H](CO)[C@@H]2COC2OCC(O)[C@@H](O)[C@H]2O)cc1O (stereo not given in full)
EC50 (Leishmania donovani [8]): 1.84 µM

Compound: CO[C@@]12[C@H](COC(N)=O)C3=C(C(=O)C(C)=C(N)C3=O)N1C[C@@H]1N[C@@H]12 [MITOMYCIN]
IC50 (Leishmania amazonensis [16]): 11.5 µM
IC50 (Leishmania amazonensis [17]): 12.8 µM

Compound: C/C=C(\CC[C@@H](C)[C@H]1CC[C@H]2[C@@H]3CC=C4C[C@@H](O)CC[C@]4(C)[C@H]3CC[C@]12C)C(C)C [FUCOSTEROL]
IC50 (Leishmania major): 19 µg/mL (≈ 46 µM)
IC50 (Leishmania donovani [18]): 18.5 µg/mL (≈ 44.8 µM)

IC50 (DNA topoisomerase I): > 100 µM
Compound: CC(=O)Oc1ccc(OC(C)=O)c2cc3c(cc12)CCCC3(C)C

Compound: Fc1ccc(C2Nc3cccnc3[C@H]3c4ccccc4C[C@@H]23)c(F)c1 (stereo not given in full)
IC50 (Leishmania infantum [19]): 0.67 µM

IC50 (Arginase): 12.7 µM
Compound: CC(=O)Cc1ccccc1C(F)(F)C(=O)NNc1ccccc1

Compound: CC(C)CN(C[C@@H](O)[C@H](Cc1ccccc1)NC(=O)O[C@H]1CCOC1)S(=O)(=O)c1ccc(N)cc1 [AMPRENAVIR]
Activity (Leishmania donovani [20]): 98%

IC50 [13]: 0.6 µM
Compound: O=C1C(O)=C(C(C2=C(O)C(=O)c3ccccc3C2=O)c2ccc(F)cc2)C(=O)c2ccccc21

Compound: sodium antimony gluconate
Activity (Leishmania donovani [20]): 97%

IC50 (DNA topoisomerase I): 50 µM
Compound: COc1cc2c3c(c1)Oc1c(OC)c(OC)c(OC)c4c1C(Cc1ccc(cc1)Oc1cc(ccc1OC)C[C@H]3N(C)CC2)N(C)CC4 (stereo not given in full)

IC50 (Trypanothione reductase): 98.4 µM
Compound: O[C@H](CC1c2ccccc2-c2ccccc21)CN1CCN(C[C@H](O)C[C@@H]2c3ccc(Br)cc3-c3cc(Br)cc(Br)c32)CC1
